# Source: US6570006B1, “Bacterial gene and method of treating a gram negative bacterial infection” (priority 1998, dated 2003)
# Entries after “also recorded” stand apart in the source; their conditions may differ. Read-outs that look alike come from different tables or passages of the source.
# Experiments:
# E. coli F470 (parent) = experiment: SDS and novobiocin sensitivity testing (MIC), parent strain; assay type: cell-based; settings: Escherichia coli, LB, 37° C., growth scored after 8 hours, read-out: Minimum inhibitory concentration (MIC) novobiocin
# Method: (§1) Bacterial Strains and Growth Conditions—E. coli F470 is an R-LPS derivative of an O8:K27 strain (Schmidt, G. et al, 1969), and serves as the prototype for R1 core OS studies. Derivatives of F470 used in this study include CWG296 (F470 with a waaP::aacC1 insertion), CWG297 (F470 with a waaQ::aacC1 insertion), and CWG312 (F470 with a waaY::aacC1 insertion). Bacteria were grown in Luria-Bertani (LB) broth at 37° C. Growth media were supplemented with ampicillin (100 μg/mL), gentamicin (15 μg/mL), or chloramphenicol (30 μg/mL) when necessary.
# (§2) Sodium dodecyl sulfate (SDS) and Novobiocin Sensitivity Testing—Two-fold serial dilutions of SDS (200→0.1 mg/mL) and novobiocin (200→1.6 μg/mL) were made in 5 mL volumes of LB. Each series of tubes was point inoculated from an overnight culture of the strain to be tested, and then incubated with shaking at 37° C. Growth was scored as positive if after 8 hours the culture was visibly turbid (i.e. A600>0.2).
# [1] = test system: CWG312 (F470 with a waaY::aacC1 insertion); experiment: SDS and novobiocin sensitivity testing (MIC), waaY mutant; assay type: cell-based, Escherichia coli; settings: for MIC / sensitivity compared with F470 (in words): strain CWG312 (waaY) versus F470 parent
# Method: as §1, §2
# To test this possibility, strain CWG312 was derived by insertion of the aacC1 gene into the unique SnaBI site in the waaY coding region of F470 (FIG. 2B). The LPS from the resulting mutant migrated similarly to that of the F470 parent in sodium dodexyl sulphate-polyacrylamine gel electrophoresis (SDS-PAGE) (data not shown), precluding any significant effect of the mutation on core OS extension.
# [2] = test system: CWG297 (F470 with a waaQ::aacC1 insertion); experiment: SDS and novobiocin sensitivity testing (MIC), waaQ mutant; assay type: cell-based, Escherichia coli; settings: for MIC / sensitivity compared with F470 (in words): strain CWG297 (waaQ) versus F470 parent
# Method: as §1, §2
# Strain CWG297 was derived by insertion of the aacC1 gene into the unique NruI site in the waaQ coding region of F470 (FIG. 2B).
# [3] = test system: CWG296 (F470 with a waaP::aacC1 insertion); experiment: SDS and novobiocin sensitivity testing (MIC), waaP mutant; assay type: cell-based, Escherichia coli; settings: for MIC: Escherichia coli, LB, 37° C., 8 hours; for MIC / sensitivity of the mutant (in words): strain CWG296 (waaP); for increase in the susceptibility: strain CWG296 (waaP) versus F470 parent
# Method: as §1, §2
# Strain CWG296 was derived by insertion of the aacC1 gene into the unique NruI site in the waaP coding region of F470 (FIG. 2B). The resulting mutant was hypersensitive to novobiocin and SDS (Table II), as expected based on results from previous studies (Helander, I. M. et al., 1989; Parker, C. T. et al., 1992).
# CWG296 (waaP) + pWQ909 = experiment: SDS and novobiocin sensitivity testing (MIC), complemented waaP mutant; assay type: cell-based, Escherichia coli; settings: for resistance after introduction of multicopy waaP (in words): CWG296 with plasmid pWQ909
# Method: as §1
# Cloning and Expression of waaP for Complementation—Oligonucleotide primers for the amplification of waaP from the F470 chromosome were designed to introduce appropriate restriction sites for cloning. The forward primer (5′-TGTGGATccAAATAGTGGGCACTCA-3′)(SEQ. I.D. No. 7) introduced a BamHI site (underlined) 32 base pairs downstream of the waaP stop codon, and the complementary reverse primer (5′-GGGTGGTCcatATGGTTGAACTTAA-3′)(SEQ. I.D. No. 8) introduced an NdeI site (underlined) overlapping the waaP start codon (bases shown in lower case indicate mismatches between the primer and chromosomal sequences). The coding region for waaP alone was subsequently isolated as a BamHI-NdeI fragment, and cloned behind the arabinose-inducible PBAD promoter of the expression vector pBAD18, to generate plasmid pWQ909. L-arabinose was used at a final concentration of 0.002% to induce expression of WaaP from plasmid pWQ909.
# as §2
# Strain CWG296 was derived by insertion of the aacC1 gene into the unique NruI site in the waaP coding region of F470 (FIG. 2B). […]
# [4] = Escherichia coli, 8 h, read-out: Minimum inhibitory concentration (MIC) novobiocin
SMILES,MIC (E. coli F470 (parent)) [µg/mL],"MIC [1, 4] [µg/mL]",MIC / sensitivity compared with F470 (in words) [1],"MIC [2, 4] [µg/mL]",MIC / sensitivity compared with F470 (in words) [2],MIC ([3]; read-out: Minimum inhibitory concentration (MIC) novobiocin) [µg/mL],sensitivity of the mutant (in words) [3],increase in the susceptibility [3] [fold],resistance after introduction of multicopy waaP (in words) (CWG296 (waaP) + pWQ909),"MIC (CWG296 (waaP) + pWQ909; Escherichia coli, strain CWG296 (waaP) + pWQ909, LB, 37° C., 8 hours, read-out: Minimum inhibitory concentration (MIC) novobiocin) [µg/mL]",MIC / sensitivity compared with F470 (in words) ([1]; sulfate),MIC / sensitivity compared with F470 (in words) ([2]; sulfate),MIC ([3]; read-out: Minimum inhibitory concentration (MIC) SDS) [µg/mL]
CO[C@@H]1[C@@H](OC(N)=O)[C@@H](O)[C@H](Oc2ccc3c(O)c(NC(=O)c4ccc(O)c(CC=C(C)C)c4)c(=O)oc3c2C)OC1(C)C [novobiocin],200,100,slightly less than for F470; also recorded: minor increase in the sensitivity,100,slightly less than for F470; also recorded: minor increase in the sensitivity,6.3,hypersensitive,32,restored wild-type levels of resistance,100,,,
"CCCCCCCCCCCCOS(=O)(=O)[O-].[Na+] [SDS, Sodium dodecyl sulfate]",,,,,,,hypersensitive,> 1000,restored wild-type levels of resistance,,slightly less than for F470; also recorded: minor increase in the sensitivity,slightly less than for F470; also recorded: minor increase in the sensitivity,100
